We go through 38 compounds from patent US20030224942A1, “Alkylamino-1,3,5-triazines, processes for their preparation and their use as herbicides and plant growth regulators” (priority 2001, published 2003).

The structures appear in SMILES notation.

Experiment [1] relates to Cyperus spp., Echinochloa spp., Digitaria spp., Sagitaria spp. and Scirpus spp. Briefly: Action on harmful plants in rice (paddy rice conditions, visual scoring). The experiment is classed as in vivo, typical rice weeds (gramineous and broad-leaved). The note with it: applied into the dammed water, visual scoring about three weeks after application. The text has this:
Transplanted and sown rice and also typical rice weeds (gramineous and broad-leaved) are cultivated in closed plastic pots in a greenhouse to the three-leaf stage (Echinochloa crus-galli 1.5-leaf) under paddy rice conditions (dammed height of water: 2-3 cm). This is followed by treatment with the compounds according to the invention. […] After this treatment, the test plants are set up in a greenhouse under optimum growth conditions and are maintained in this way throughout the test period.

Experiment [2] has as its system Chenopodium spp., Papaver spp., Polygonum spp., Veronica spp. or Viola spp. Briefly: Post-emergence effect on weeds (greenhouse pot test, visual scoring). To be noted: treated at three-leaf stage; visual scoring after about 3 to 4 weeks; application rate of 0.5 kg and less of active substance per hectare. The experiment is classed as in vivo, monocotyledonous and dicotyledonous weeds.

For the compound `Cc1nc(N)nc(NCc2ccc(F)c(C(F)=C(F)F)c2)n1` [Product P1.5], the “herbicidal activity against harmful plants which are typical for rice crops” value (“herbicidal activity … for rice crops” below) in experiment [1] is “very good herbicidal activity”. Moreover, the “herbicidal activity post-emergence against harmful plants” value (from here on “herbicidal activity post-emergence”) in experiment [2] is listed as “very good herbicidal activity”.

`Cc1nc(N)nc(NCc2cc(F)c(C(F)=C(F)F)c(F)c2)n1` [Product P1.49]: the “herbicidal activity … for rice crops” value in experiment [1] was “very good herbicidal activity”. Besides, the “herbicidal activity post-emergence” value in experiment [2] was “very good herbicidal activity”.

`C#Cc1cc(CNc2nc(C)nc(N)n2)ccc1F` [Product P1.309]: the “herbicidal activity … for rice crops” value in experiment [1] is recorded as “very good herbicidal activity”. Moreover, in experiment [2], the “herbicidal activity post-emergence” value is reported as “very good herbicidal activity”.

As to `C#Cc1c(F)cc(CNc2nc(C)nc(N)n2)cc1F` [Product P1.352], in experiment [1], the “herbicidal activity … for rice crops” value is recorded as “very good herbicidal activity”. The “herbicidal activity post-emergence” value in experiment [2] was “very good herbicidal activity”.

Turning to `CC#Cc1cc(CNc2nc(C)nc(N)n2)ccc1F` [Product P1.384], the “herbicidal activity … for rice crops” value in experiment [1] was “very good herbicidal activity”. The “herbicidal activity post-emergence” value in experiment [2] is “very good herbicidal activity”.

On to `CC#Cc1c(F)cc(CNc2nc(C)nc(N)n2)cc1F` [Product P1.428], for which the “herbicidal activity … for rice crops” value in experiment [1] is reported as “very good herbicidal activity”. The “herbicidal activity post-emergence” value in experiment [2] is recorded as “very good herbicidal activity”.

`Cc1nc(N)nc(NCc2ccc(F)c(C3CC3)c2)n1` [Product P1.916]: the “herbicidal activity … for rice crops” value in experiment [1] is on record as “very good herbicidal activity”. In addition, the “herbicidal activity post-emergence” value in experiment [2] is recorded as “very good herbicidal activity”.

With `Cc1nc(N)nc(NCc2cc(F)c(C3CC3)c(F)c2)n1` [Product P1.960], the “herbicidal activity … for rice crops” value in experiment [1] is on record as “very good herbicidal activity”. Further, the “herbicidal activity post-emergence” value in experiment [2] is “very good herbicidal activity”.

On to `Cc1nc(N)nc(NCc2cccc(C(F)=C(F)F)c2)n1` [Product P1.1567], for which the “herbicidal activity … for rice crops” value in experiment [1] is recorded as “very good herbicidal activity”. In addition, the “herbicidal activity post-emergence” value in experiment [2] is “very good herbicidal activity”.

Turning to `Cc1nc(N)nc(NCc2ccc(C(F)=C(F)F)cc2)n1` [Product P1.1568], in experiment [1], the “herbicidal activity … for rice crops” value was “very good herbicidal activity”. Besides, in experiment [2], the “herbicidal activity post-emergence” value was “very good herbicidal activity”.

Turning to `C#Cc1cccc(CNc2nc(C)nc(N)n2)c1` [Product P1.1579], the “herbicidal activity … for rice crops” value in experiment [1] is given as “very good herbicidal activity”. Moreover, in experiment [2], the “herbicidal activity post-emergence” value is on record as “very good herbicidal activity”.

As to `C#Cc1ccc(CNc2nc(C)nc(N)n2)cc1` [Product P1.1580], in experiment [1], the “herbicidal activity … for rice crops” value is reported as “very good herbicidal activity”. In experiment [2], the “herbicidal activity post-emergence” value is “very good herbicidal activity”.

Turning to `CC#Cc1cccc(CNc2nc(C)nc(N)n2)c1` [Product P1.1582], the “herbicidal activity … for rice crops” value in experiment [1] is “very good herbicidal activity”. Moreover, the “herbicidal activity post-emergence” value in experiment [2] is “very good herbicidal activity”.

In the case of `CC#Cc1ccc(CNc2nc(C)nc(N)n2)cc1` [Product P1.1583], the “herbicidal activity … for rice crops” value in experiment [1] is recorded as “very good herbicidal activity”. Moreover, the “herbicidal activity post-emergence” value in experiment [2] is recorded as “very good herbicidal activity”.

In the case of `Cc1nc(N)nc(NCc2cccc(C3CC3)c2)n1` [Product P1.1603], in experiment [1], the “herbicidal activity … for rice crops” value is “very good herbicidal activity”. In addition, in experiment [2], the “herbicidal activity post-emergence” value is on record as “very good herbicidal activity”.

Take `Cc1nc(N)nc(NCc2ccc(C3CC3)cc2)n1` [Product P1.1604]: the “herbicidal activity … for rice crops” value in experiment [1] is on record as “very good herbicidal activity”. In addition, in experiment [2], the “herbicidal activity post-emergence” value was “very good herbicidal activity”.

For the compound `Cc1nc(N)nc(NC(C)c2ccc(F)c(C(F)=C(F)F)c2)n1` (stereo not shown) [Product P2.5], in experiment [1], the “herbicidal activity … for rice crops” value was “very good herbicidal activity”. Moreover, in experiment [2], the “herbicidal activity post-emergence” value is “very good herbicidal activity”.

For the compound `Cc1nc(N)nc(NC(C)c2cc(F)c(C(F)=C(F)F)c(F)c2)n1` (stereo not shown) [Product P2.49], in experiment [1], the “herbicidal activity … for rice crops” value is recorded as “very good herbicidal activity”. Further, the “herbicidal activity post-emergence” value in experiment [2] is reported as “very good herbicidal activity”.

With `C#Cc1cc(C(C)Nc2nc(C)nc(N)n2)ccc1F` (stereo not shown) [Product P2.309], the “herbicidal activity … for rice crops” value in experiment [1] is given as “very good herbicidal activity”. In addition, in experiment [2], the “herbicidal activity post-emergence” value is given as “very good herbicidal activity”.

Regarding `C#Cc1c(F)cc(C(C)Nc2nc(C)nc(N)n2)cc1F` (stereo not shown) [Product P2.352], the “herbicidal activity … for rice crops” value in experiment [1] is “very good herbicidal activity”. Further, the “herbicidal activity post-emergence” value in experiment [2] is given as “very good herbicidal activity”.

For the compound `CC#Cc1cc(C(C)Nc2nc(C)nc(N)n2)ccc1F` (stereo not shown) [Product P2.384], the “herbicidal activity … for rice crops” value in experiment [1] is reported as “very good herbicidal activity”. The “herbicidal activity post-emergence” value in experiment [2] is recorded as “very good herbicidal activity”.

As to `CC#Cc1c(F)cc(C(C)Nc2nc(C)nc(N)n2)cc1F` (stereo not shown) [Product P2.428], the “herbicidal activity … for rice crops” value in experiment [1] is listed as “very good herbicidal activity”. The “herbicidal activity post-emergence” value in experiment [2] is listed as “very good herbicidal activity”.

Take `Cc1nc(N)nc(NC(C)c2ccc(F)c(C3CC3)c2)n1` (stereo not shown) [Product P2.916]: in experiment [1], the “herbicidal activity … for rice crops” value is listed as “very good herbicidal activity”. Moreover, the “herbicidal activity post-emergence” value in experiment [2] was “very good herbicidal activity”.

For `Cc1nc(N)nc(NC(C)c2cc(F)c(C3CC3)c(F)c2)n1` (stereo not shown) [Product P2.960], the “herbicidal activity … for rice crops” value in experiment [1] was “very good herbicidal activity”. In experiment [2], the “herbicidal activity post-emergence” value is given as “very good herbicidal activity”.

Consider `Cc1nc(N)nc(NC(C)c2cccc(C(F)=C(F)F)c2)n1` (stereo not shown) [Product P2.1567], for which the “herbicidal activity … for rice crops” value in experiment [1] is given as “very good herbicidal activity”. Further, in experiment [2], the “herbicidal activity post-emergence” value is recorded as “very good herbicidal activity”.

In the case of `Cc1nc(N)nc(NC(C)c2ccc(C(F)=C(F)F)cc2)n1` (stereo not shown) [Product P2.1568], the “herbicidal activity … for rice crops” value in experiment [1] was “very good herbicidal activity”. Besides, the “herbicidal activity post-emergence” value in experiment [2] is on record as “very good herbicidal activity”.

With `C#Cc1cccc(C(C)Nc2nc(C)nc(N)n2)c1` (stereo not shown) [Product P2.1579], the “herbicidal activity … for rice crops” value in experiment [1] is given as “very good herbicidal activity”. In addition, the “herbicidal activity post-emergence” value in experiment [2] is recorded as “very good herbicidal activity”.

`C#Cc1ccc(C(C)Nc2nc(C)nc(N)n2)cc1` (stereo not shown) [Product P2.1580]: the “herbicidal activity … for rice crops” value in experiment [1] is “very good herbicidal activity”. Also, the “herbicidal activity post-emergence” value in experiment [2] is on record as “very good herbicidal activity”.

With `CC#Cc1cccc(C(C)Nc2nc(C)nc(N)n2)c1` (stereo not shown) [Product P2.1582], the “herbicidal activity … for rice crops” value in experiment [1] is on record as “very good herbicidal activity”. Also, the “herbicidal activity post-emergence” value in experiment [2] is given as “very good herbicidal activity”.

Consider `CC#Cc1ccc(C(C)Nc2nc(C)nc(N)n2)cc1` (stereo not shown) [Product P2.1583], for which, in experiment [1], the “herbicidal activity … for rice crops” value is on record as “very good herbicidal activity”. Besides, the “herbicidal activity post-emergence” value in experiment [2] was “very good herbicidal activity”.

Consider `Cc1nc(N)nc(NC(C)c2cccc(C3CC3)c2)n1` (stereo not shown) [Product P2.1603], for which the “herbicidal activity … for rice crops” value in experiment [1] is on record as “very good herbicidal activity”. Besides, the “herbicidal activity post-emergence” value in experiment [2] was “very good herbicidal activity”.

Regarding `Cc1nc(N)nc(NC(C)c2ccc(C3CC3)cc2)n1` (stereo not shown) [Product P2.1604], in experiment [1], the “herbicidal activity … for rice crops” value was “very good herbicidal activity”. Further, the “herbicidal activity post-emergence” value in experiment [2] is reported as “very good herbicidal activity”.

Take `C#Cc1ccc(C(C)Nc2nc(C)nc(N)n2)cc1F` (stereo not shown) [Product P2.1620]: the “herbicidal activity … for rice crops” value in experiment [1] is on record as “very good herbicidal activity”. In experiment [2], the “herbicidal activity post-emergence” value is “very good herbicidal activity”.

As for `Cc1nc(N)nc(NC(c2ccc(F)c(C(F)=C(F)F)c2)C2CC2)n1` (stereo not shown) [Product P4.5], the “herbicidal activity … for rice crops” value in experiment [1] is reported as “very good herbicidal activity”. Moreover, the “herbicidal activity post-emergence” value in experiment [2] is reported as “very good herbicidal activity”.

For `Cc1nc(N)nc(NC(c2cc(F)c(C(F)=C(F)F)c(F)c2)C2CC2)n1` (stereo not shown) [Product P4.49], the “herbicidal activity … for rice crops” value in experiment [1] was “very good herbicidal activity”. For the same compound, the “herbicidal activity post-emergence” value in experiment [2] is listed as “very good herbicidal activity”.

`C#Cc1cc(C(Nc2nc(C)nc(N)n2)C2CC2)ccc1F` (stereo not shown) [Product P4.309]: the “herbicidal activity … for rice crops” value in experiment [1] is recorded as “very good herbicidal activity”. The “herbicidal activity post-emergence” value in experiment [2] was “very good herbicidal activity”.

Turning to `CC#Cc1cc(C(Nc2nc(C)nc(N)n2)C2CC2)ccc1F` (stereo not shown) [Product P4.384], the “herbicidal activity … for rice crops” value in experiment [1] is “very good herbicidal activity”. In experiment [2], the “herbicidal activity post-emergence” value is listed as “very good herbicidal activity”.

As for `CC#Cc1c(F)cc(C(Nc2nc(C)nc(N)n2)C2CC2)cc1F` (stereo not shown) [Product P4.428], the “herbicidal activity … for rice crops” value in experiment [1] was “very good herbicidal activity”. Further, in experiment [2], the “herbicidal activity post-emergence” value is recorded as “very good herbicidal activity”.
